Assay results reported in US20080194585A1, “Fungicidal Pyrazine Derivatives” (priority 2005, published 2008).
Marks after values point to notes of the source that are not given here.

Tests used:
[1] = test system: Plasmopara viticola; test: Test D: grape downy mildew, spray after inoculation of grape seedlings; type: in vivo
Text: Upon removal, disease ratings were made. […] A dash (-) indicates no test results.

[2] = test system: Erysiphe graminis f. sp. tritici; test: Test L: wheat powdery mildew, preventive spray on wheat seedlings
[3] = test system: Puccinia recondita f. sp. tritici; test: Test K: wheat leaf rust, preventive spray on wheat seedlings; settings: for Test K disease control rating: 200 ppm
[4] = test system: Pythium aphanidermatum; test: Test A: bluegrass pythium blight, preventive spray on bluegrass seedlings; settings: for Test A disease control rating: 200 ppm
[5] = test system: Septoria nodorum; test: Test H: wheat glum blotch, preventive spray on wheat seedlings
Procedure: (the causal agent of wheat glum blotch) and incubated in a saturated atmosphere at 20° C. for 48 h, and then moved to a growth chamber at 22° C. for 5 days, after which disease ratings were made.

[6] = test system: fusarium graminearium; test: Test I: wheat head scab, preventive spray on wheat seedlings
Procedure: (the causal agent of wheat head scab) and incubated in a saturated atmosphere at 20° C. for 72 h, and then moved to a growth chamber at 22° C. for 5 days, after which disease ratings were made.

[7] = test system: Rhizoctonia oryzae; test: Test G: turf brown patch, preventive spray on creeping bent grass seedlings
Procedure: (the causal agent of turf brown patch) and incubated in a saturated atmosphere at 27° C. for 24 h, and then moved to a growth chamber at 27° C. for 5 days, after which disease ratings were made.

[8] = test system: Phytophthora infestans; test: whole plant or invertebrate; type: in vivo
[9] = test system: Botrytis cinerea; test: Test E: tomato botrytis, preventive spray on tomato seedlings
[10] = test system: Colletotrichum orbiculare; test: Test B: cucumber Colletotrichum anthracnose, preventive spray on cucumber seedlings
[11] = test system: Septoria tritici; test: Test J: wheat leaf blotch, preventive spray on wheat seedlings; type: in vivo; settings: 40 ppm (marked *); 100 = 100% disease control, 0 = no control
Text: A dash (-) indicates no test results.

[12] = 200 ppm, 100 = 100% disease control, 0 = no control relative to controls
[13] = 100 = 100% disease control, 0 = no control relative to controls
[14] = 40 ppm (marked *), 100 = 100% disease control, 0 = no control

Compound	Test D disease control rating [1, 14]	Test J disease control rating [11]	Test L disease control rating [2, 14]	Test H disease control rating [5, 14]	Test I disease control rating [6, 14]	Test G disease control rating [7, 14]	Test F disease control rating [8, 14]	Test E disease control rating [9, 14]	Test B disease control rating [10, 14]	further results
CC(C)=Nn1c(-c2c(F)cccc2F)c(Cl)nc(-n2cccn2)c1=O [Compound 392, 5-Chloro-6-(2,6-difluorophenyl)-1-[(1-methylethylidene)amino]-3-(1H-pyrazol-1-yl)-2(1H)-pyrazinone]	–	–	–	–	–	–	–	–	–	pest or weed control at 200 ppm ([1]; Plasmopara viticola, 168 h, 200 ppm, 100 = 100% disease control, 0 = no control relative to controls, read-out: Test D disease control rating): 0%; pest or weed control at 200 ppm ([2]; Blumeria graminis, in Triticum aestivum, 168 h, read-out: Test L disease control rating, 200 ppm, 100 = 100% disease control, 0 = no control relative to controls): 59%; pest or weed control at 200 ppm ([3]; Puccinia recondita, in Triticum aestivum, 192 h, read-out: Test K disease control rating): 99%; pest or weed control at 200 ppm ([4]; Pythium aphanidermatum, 120 h, read-out: Test A disease control rating): 0%; pest or weed control at 200 ppm ([5]; Parastagonospora nodorum, in Triticum aestivum, topical, 168 h, read-out: Test H disease control rating, 200 ppm, 100 = 100% disease control, 0 = no control relative to controls): 78%; pest or weed control at 200 ppm ([6]; Fusarium, in Triticum aestivum, topical, 192 h, read-out: Test I disease control rating, 200 ppm, 100 = 100% disease control, 0 = no control relative to controls): 0%; pest or weed control at 200 ppm ([7]; Waitea circinata, in Agrostis stolonifera, topical, 144 h, read-out: Test G disease control rating, 200 ppm, 100 = 100% disease control, 0 = no control relative to controls): 69%; pest or weed control at 200 ppm ([8]; Phytophthora infestans, in Solanum lycopersicum, topical, 144 h, read-out: Test F disease control rating): 0%; pest or weed control at 200 ppm ([9]; Botrytis cinerea, in Solanum lycopersicum, topical, 72 h, read-out: Test E disease control rating): 99%; pest or weed control at 200 ppm ([10]; Colletotrichum orbiculare, in Cucumis sativus, 144 h, read-out: Test B disease control rating, 200 ppm, 100 = 100% disease control, 0 = no control relative to controls): 0%
CC(C)Cn1c(-c2c(F)cccc2F)c(Cl)nc(N2CCC=N2)c1=O [compound 4]	–	–	–	–	–	–	–	–	–	Test D disease control rating ([1]; 200 ppm): 12%; Test L disease control rating ([2]; 200 ppm): 96%; Test K disease control rating [3]: 98%; Test A disease control rating [4]: 0%; Test H disease control rating ([5]; 200 ppm): 99%; Test I disease control rating ([6]; 200 ppm): 0%; Test G disease control rating ([7]; 200 ppm): 99%; Test F disease control rating ([8]; 200 ppm): 0%; Test E disease control rating ([9]; 200 ppm): 96%; Test B disease control rating ([10]; 200 ppm): 0%
CCC(C)c1c(Cl)nc(-n2ccc(C)n2)c(=O)n1CC(C)C (centres unmarked) [compound 390]	–	–	–	–	–	–	–	–	–	Test D disease control rating [1, 12]: 8%; Test L disease control rating [2, 12]: 100%; Test K disease control rating [3, 13]: 100%; Test A disease control rating [4, 13]: 0%; Test H disease control rating [5, 12]: 0%; Test I disease control rating [6, 12]: 0%; Test G disease control rating [7, 12]: 99%; Test F disease control rating [8, 12]: 0%; Test E disease control rating [9, 12]: 98%; Test B disease control rating [10, 12]: 0%
CC(C)Cn1c(-c2c(F)cccc2F)c(I)nc(-c2ccccn2)c1=O [compound 401]	0* %	32* %	–	–	–	–	–	–	–	Test L disease control rating [2, 12]: 98%; Test H disease control rating [5, 12]: 95%; Test I disease control rating [6, 12]: 0%; Test G disease control rating [7, 12]: 85%; Test F disease control rating [8, 12]: 0%; Test E disease control rating [9, 12]: 96%; Test B disease control rating [10, 12]: 0%
O=c1c(-n2cccn2)nc(Cl)c(-c2c(F)cc(F)cc2F)n1-c1ccc(Cl)c(Cl)c1 [compound 402]	0* %	99* %	57* %	100* %	0* %	0* %	0* %	99* %	98* %	–
Cc1ccn(-c2nc(Cl)c(-c3c(F)cc(F)cc3F)n(-c3ccc(Cl)c(Cl)c3)c2=O)n1 [compound 403]	0* %	98* %	99* %	100* %	0* %	–	0* %	99* %	99* %	Test G disease control rating [7, 12]: 0%
O=c1c(-n2cccn2)nc(Cl)c(-c2c(F)cc(F)cc2F)n1-c1cc(Cl)cc(Cl)c1 [compound 404]	0* %	97* %	0* %	100* %	0* %	9* %	0* %	98* %	0* %	–
Cc1ccn(-c2nc(Cl)c(-c3c(F)cc(F)cc3F)n(-c3cc(Cl)cc(Cl)c3)c2=O)n1 [compound 405]	0* %	99* %	0* %	98* %	0* %	17* %	0* %	99* %	36* %	–
O=c1c(-n2cccn2)nc(Cl)c(-c2c(F)cc(F)cc2F)n1-c1ccc(F)c(Cl)c1 [compound 406]	0* %	100* %	0* %	99* %	0* %	50* %	0* %	99* %	84* %	–
Cc1ccn(-c2nc(Cl)c(-c3c(F)cc(F)cc3F)n(-c3ccc(F)c(Cl)c3)c2=O)n1 [compound 407]	0* %	99* %	0* %	99* %	0* %	9* %	0* %	99* %	32* %	–
O=c1c(-n2cccn2)nc(Cl)c(-c2c(F)cc(F)cc2F)n1-c1ccc(F)cc1 [compound 408]	0* %	99* %	99* %	100* %	0* %	91* %	0* %	99* %	98* %	–
Cc1ccn(-c2nc(Cl)c(-c3c(F)cc(F)cc3F)n(-c3ccc(F)cc3)c2=O)n1 [compound 409]	0* %	99* %	60* %	99* %	0* %	24* %	0* %	99* %	98* %	–
O=c1c(-n2cccn2)nc(Cl)c(-c2c(F)cc(F)cc2F)n1-c1cc(F)c(F)c(F)c1 [compound 410]	0* %	98* %	0* %	99* %	0* %	17* %	0* %	99* %	97* %	–
Cc1ccn(-c2nc(Cl)c(-c3c(F)cc(F)cc3F)n(-c3cc(F)c(F)c(F)c3)c2=O)n1 [compound 411]	0* %	98* %	87* %	99* %	0* %	16* %	0* %	99* %	98* %	–
CCn1c(-c2ccc(F)cc2Cl)c(Cl)nc(C(N)=O)c1=O [compound 412]	–	0* %	0* %	0* %	–	0* %	–	29* %	0* %	Test D disease control rating [1, 12]: 16%; Test I disease control rating [6, 12]: 0%; Test F disease control rating [8, 12]: 9%
O=c1c(-n2cccn2)nc(Cl)c(-c2c(F)cc(F)cc2F)n1C1CCCCC1 [compound 418]	–	–	–	–	–	–	–	–	–	Test D disease control rating [1, 12]: 47%; Test L disease control rating [2, 12]: 100%; Test K disease control rating [3, 13]: 99%; Test A disease control rating [4, 13]: 0%; Test H disease control rating [5, 12]: 100%; Test I disease control rating [6, 12]: 0%; Test G disease control rating [7, 12]: 99%; Test F disease control rating [8, 12]: 0%; Test E disease control rating [9, 12]: 99%; Test B disease control rating [10, 12]: 99%
CCC(C)Cn1c(-c2ccc(OC)cc2F)c(Cl)nc(-n2cccn2)c1=O (centres unmarked) [compound 421]	–	–	–	–	–	–	–	–	–	Test D disease control rating [1, 12]: 3%; Test L disease control rating [2, 12]: 94%; Test K disease control rating [3, 13]: 100%; Test A disease control rating [4, 13]: 0%; Test H disease control rating [5, 12]: 100%; Test I disease control rating [6, 12]: 0%; Test G disease control rating [7, 12]: 34%; Test F disease control rating [8, 12]: 0%; Test E disease control rating [9, 12]: 99%; Test B disease control rating [10, 12]: 99%
